# Structures can show the parent of a compound that is named as a salt. Where a SMILES comes first, the peptide text is derived from it. [ ]: non-standard residue; d: D form. The star is where a group is joined. X2 = CCC(C)(C)NCCN(CCNC(C)(C)/C(C)=N/O)CCN*; Tyr(3-I) = N[C@@H](Cc1ccc(O)c(I)c1)C(=O)O
# Test: in vitro
# Conditions: PAMPA, PAMPA-BBB Pe
row,Structure (SMILES),Papp [×10⁻⁶ cm/s]
1,O=C1C[C@@H]2OCC=C3CN4CC[C@]56c7ccccc7N1[C@H]5[C@H]2[C@H]3C[C@H]46 [[…]],13
2,CCOC(=O)c1ccc(N)cc1 [BENZOCAINE],99
3,COC(=O)c1c(C)cc(O)c(C)c1O [VERAMOSS],225
4,COc1ccc2[nH]c3c(c2c1)CCNC3C (stereo not shown) [ADRENOGLOMERULOTROPIN],23

# Same assay, conditions: PAMPA, PAMPA-BBB Pe(10^-6 cm/sec)
row,Structure (SMILES),Papp [×10⁻⁶ cm/s]
1,O=c1cccc2n1C[C@@H]1CNC[C@H]2C1 [CYTISINE],< 1
2,Oc1ccc(O)cc1 [HYDROQUINONE],< 1
3,CN(C)[C@@H]1C(O)=C(C(N)=O)C(=O)[C@@]2(O)C(O)=C3C(=O)c4c(O)ccc(Cl)c4[C@@](C)(O)[C@H]3C[C@@H]12 [[…]],< 1
4,O=C(O)c1cccnc1 [NICOTINIC ACID],< 1
5,CO[C@H]1/C=C/O[C@@]2(C)Oc3c(C)c(O)c4c(O)c(c(/C=N/N5CCN(C)CC5)c(O)c4c3C2=O)NC(=O)/C(C)=C\C=C\[C@H](C)[C@H](O)[C@@H](C)[C@@H](O)[C@@H](C)[C@H](OC(C)=O)[C@@H]1C [Rifampicin],3.7
6,CC1=C(C)C(=O)C(CC[C@](C)(O)CCC[C@H](C)CCC[C@H](C)CCCC(C)C)=C(C)C1=O [.ALPHA.-TOCOPHERYLQUINONE],7.2

# Same assay, conditions: PAMPA, PAMPA-BBB Pe(10^-6 cm/sec), Table S3: compounds exhibiting low PAMPA-BBB permeability
row,Structure (SMILES),Papp [×10⁻⁶ cm/s]
1,C=CC(C)=CCC=C(C)C [CIS BETA OCIMENE],3.9
2,CNCCc1c[nH]c2ccc(O)cc12 [N-METHYLSEROTONIN],7.1
3,O=c1[nH]c(=O)c2ncn([C@@H]3O[C@H](CO)[C@@H](O)[C@H]3O)c2[nH]1 [XANTHOSINE],< 1
4,COc1cc(C(O)C(=O)O)ccc1O (stereo not shown) [[…] ACID],5.6
5,O=C(/C=C/c1ccc(O)c(O)c1)c1ccc(O)cc1O [BUTEIN],< 1
6,O=c1c(O)c(-c2ccc(O)cc2O)oc2cc(O)cc(O)c12 [MORIN],1.5
7,CCC(=O)c1c(O)cc(O)cc1O [FLOPROPIONE],2.8
8,O=C(/C=C/c1ccc(O)c(O)c1)O[C@@H]1C[C@@](OC(=O)/C=C/c2ccc(O)c(O)c2)(C(=O)O)C[C@@H](O)[C@@H]1O [CYNARINE],< 1
9,C[C@@H]1Cc2c(Cl)cc(C(=O)N[C@@H](Cc3ccccc3)C(=O)O)c(O)c2C(=O)O1 [[…]],1.6
10,O=c1cc(-c2ccc(O)cc2)oc2cc(O[C@@H]3O[C@H](CO)[C@@H](O)[C@H](O)[C@H]3O[C@@H]3OC[C@](O)(CO)[C@H]3O)cc(O)c12 [APIIN],2
11,CN(CCCC(=O)c1cccnc1)N=O,< 1
12,O=C1O/C(=C\c2ccc(O)cc2)C(O)=C1c1ccc(O)cc1 [[…] B1],< 1
13,CC(=O)Nc1ccccc1O [O-ACETAMIDOPHENOL],< 1
14,O=C(OC[C@H]1O[C@@H](OC(=O)c2cc(O)c(O)c(O)c2)[C@H](OC(=O)c2cc(O)c(O)c(O)c2)[C@@H](OC(=O)c2cc(O)c(O)c(O)c2)[C@@H]1OC(=O)c1cc(O)c(O)c(O)c1)c1cc(O)c(O)c(O)c1 [PENTAGALLOYLGLUCOSE],3.2
15,Nc1nc(Cl)nc2c1ncn2[C@@H]1O[C@H](CO)C(O)[C@H]1O (stereo partly shown) [2-CHLOROADENOSINE],< 1
16,COc1ccc2cc1Oc1ccc(cc1)C[C@H]1c3cc(c(OC)cc3CCN1C)Oc1c(OC)c(OC)c(OC)c3c1[C@H](C2)N(C)CC3 [HERNANDEZINE],9.7
17,N[C@@H](Cc1c[nH]c2ccc(O)cc12)C(=O)O [CINCOFARM],< 1
18,O=c1c2cc(O)c(O)cc2oc2cc(O)c([C@@H]3O[C@H](CO)[C@@H](O)[C@H](O)[C@H]3O)c(O)c12 [MANGIFERIN],< 1
19,O=c1c(-c2ccc(O)cc2)coc2cc(O[C@@H]3O[C@H](CO)[C@@H](O)[C@H](O)[C@H]3O)ccc12 [DAIDZIN],< 1
20,CNCC(O)c1ccc(O)c(OC)c1 (stereo not shown) [METANEPHRINE HYDROCHLORIDE],< 1
21,O=C(CCc1ccc(O)cc1)c1c(O)cc(O)cc1O[C@@H]1O[C@H](CO)[C@@H](O)[C@H](O)[C@H]1O [PHLORIDZIN],1.4
22,O=C(O)CCCc1c[nH]c2ccccc12 [IND[…]],< 1
23,COc1cc(C)c2c(c1C=O)Oc1c(c(C)c(O)c3c1C(O)OC3=O)OC2=O (stereo not shown) [STICTIC ACID],< 1
24,COc1ccc([C@@H]2CC(=O)c3c(O)cc(O[C@@H]4O[C@H](CO)[C@@H](O)[C@H](O)[C@H]4O[C@@H]4O[C@@H](C)[C@H](O)[C@@H](O)[C@H]4O)cc3O2)cc1O [NEOHESPERIDIN],< 1
25,CC(C)Nc1nc(N)nc(Cl)n1 [DEETHYLATRAZINE],6.8
26,C[C@H]1O[C@@H](Oc2c(-c3ccc(O)c(O)c3)oc3cc(O)cc(O)c3c2=O)[C@H](O)[C@H](O)[C@H]1O [QUERCITROSIDE],< 1
27,Cc1cc(O)c(C=O)c2c1C(=O)Oc1c(COC(=O)/C=C/C(=O)O)c(O)c(C(=O)O)c(C)c1O2 [FUMARPRO[…]],< 1
28,O=C1C[C@@H](c2ccc(O[C@@H]3O[C@H](CO)[C@@H](O)[C@H](O)[C@H]3O)cc2)Oc2cc(O)ccc21 [LIQUIRITIN],< 1
29,O=C1/C(=C\c2ccc(O)c(O)c2)Oc2c1ccc(O[C@@H]1O[C@H](CO)[C@@H](O)[C@H](O)[C@H]1O)c2O [[…]],1
30,COc1cc2c(c(OC)c1OC)-c1ccc(OC)c(=O)cc1[C@@H](NC=O)CC2 [N-FORMYL-N-DEACETYLCOLCHICINE],6.6

# Same assay, conditions: PAMPA, PAMPA-BBB Pe, Table S2: compounds exhibiting moderate to high PAMPA-BBB permeability
row,Structure (SMILES),Papp [×10⁻⁶ cm/s]
1,COc1ccc2ccc(=O)oc2c1 [7-METHOXYCOUMARIN],77
2,C/C(=C\COc1c2ccoc2cc2oc(=O)ccc12)CCC(O)C(C)(C)O (stereo not shown) [BERGAMOTTIN DIHYDROXYBERGAMOTTIN],55
3,CC1=CC(=O)C2=C(C)CC[C@@H]3[C@H](OC(=O)[C@H]3C)[C@@H]12 [LEUKOMISIN],57
4,COc1cc(O)c(C(C)=O)c(OC)c1 [XANTHOXYLINE],149
5,CCCCc1ccc(O)cc1 [4-BUTYLPHENOL],116
6,COc1cc(-c2oc3cc(O)cc(O)c3c(=O)c2O)ccc1O [ISORHAMNETIN],528
7,Cn1cccc1-c1cccnc1 [NICOTYRINE],102
8,COc1ccc2c(c1O)-c1c(OC)c(OC)cc3c1[C@H](C2)N(C)CC3 [ISOCORYDINE],74
9,COC(=O)C1=CO[C@@H](C)[C@@H]2CN3CC[C@@]4(C(=O)Nc5ccccc54)[C@@H]3CC12 (stereo partly shown) [MITRAPHYLLINE],117
10,"C=C1CC[C@H](O)C/C1=C/C=C1\CCC[C@]2(C)[C@@H]([C@H](C)CCC(O)C(C)(C)O)CC[C@@H]12 (stereo partly shown) [24,25-DIHYDROXYVITAMIN D3]",78
11,COc1cc2c(O)c3c(c(-c4ccc5c(c4)OCO5)c2cc1OC)C(=O)OC3 [DIPHYLLIN],187
12,CC(=O)/C=C/C1C(C)=CCC(C)C1(C)C (mixture of isomers) [DL-TRANS-.ALPHA.-IRONE],34
13,C=C[C@]12CN(C)[C@@H]3[C@H]4CO[C@H](C[C@H]41)[C@]1(C(=O)Nc4ccccc41)[C@@H]32 [GELSEMINE],13
14,COC(=O)c1ccccc1OC [METHYL O-ANISATE],120
15,O=c1ccc2ccccc2o1 [COUMARIN],74
16,COc1ccc(Cc2nccc3cc(OC)c(OC)cc23)cc1OC [PAPAVERINE HYDROCHLORIDE],165
17,CCN1C[C@@]2(COC)CCC(OC)[C@@]34[C@@H]1C([C@H](OC)[C@H]23)[C@@]1(OC(C)=O)C[C@H](OC)[C@@]2(O)C[C@H]4C1[C@H]2OC(=O)c1ccc(OC)cc1 (stereo partly shown) [BULLE[…]],17
18,CC(C)=CCC[C@@H](C)[C@H]1CC[C@@]2(C)C3=C(CC[C@]12C)[C@@]1(C)CC[C@H](O)C(C)(C)[C@@H]1CC3 [LANOSTEROL],13
19,COc1cc(CCC(C)=O)ccc1O [ZINGERONE],23
20,"CNC(=O)Nc1ccc(Cl)c(Cl)c1 [3,4-DCPMU]",115
21,O=Cc1ccco1 [FURFURAL],46
22,CN1CCCCC1c1ccc(-c2cccnc2)nc1 (stereo not shown) [ANABASAMINE],31
23,COc1ccc(C(=O)O[C@H]2CC[C@@]3(C)[C@@H]4CC[C@H]5[C@]6(O)C[C@H](O)[C@@]7(O)[C@@H](CN8C[C@@H](C)CC[C@H]8[C@@]7(C)O)[C@]6(O)C[C@@]53O[C@]24O)cc1OC [VERATRIDINE],17
24,CCC(C)(C)NCCN(CCNC(=O)CNC(=O)[C@H](CCCCN)NC(=O)[C@H](CC(C)C)NC(=O)[C@H](CC(C)C)NC(=O)[C@@H](NC(=O)[C@H](Cc1ccc(O)c(I)c1)NC(=O)[C@@H]1CCCN1C(=O)[C@H](CO)NC(=O)[C@@H](NC(=O)[C@H](CCC(N)=O)NC(=O)[C@H](CCC(=O)O)NC(=O)[C@H](CCC(N)=O)NC(=O)[C@H](CC(N)=O)NC(C)=O)C(C)C)[C@@H](C)O)CCNC(C)(C)/C(C)=N/O (Ac-NQEQVSP[Tyr(3-I)]TLLKG-X2),155
25,Cc1ccc(C(C)C)c(O)c1 [THYMOL],168
26,CC(C)=CCCC(C)=CC(=O)O [NEROLIC ACID],17
27,C=C(C)[C@]12C[C@@H](C)[C@@]34O[C@](Cc5ccccc5)(O[C@@H]1[C@@H]3C=C(COC(=O)Cc1ccc(O)c(OC)c1)C[C@]1(O)C(=O)C(C)=C[C@@H]41)O2 [RESINIFERATOXIN],38
28,COc1ccc(/C=C/c2cc(O)cc(O)c2)cc1O [RHAPONTIN GENIN],70
29,O=c1cc(N2CCOCC2)oc2c(-c3cccc4c3sc3ccccc34)cccc12,102
30,COc1cc2c(cc1O)C[C@H]1c3c(cc(O)c(OC)c3-2)CCN1C [BOLDINE],49
